Each compound was assayed against HCV NS3-NS4A protease (tNS3 with KK4A) (Hepatitis C virus genotype 1a, UniProt P27958) (assay: HCV Ki Assay (HPLC microbore separation of 5AB substrate and products)). Conditions: 25 nM tNS3, 25 μM KK4A, 25 μM 5AB substrate, 20 min at 30 C.
Type: biochemical
Description: HPLC Microbore Method for Separation of 5AB Substrate and Products
NH2-Glu-Asp-Val-Val-(alpha)Abu-Cys-Ser-Met-Ser-Tyr-COOH
A stock solution of 20 mM 5AB (or concentration of your choice) was made in DMSO w/0.2M DTT. This was stored in aliquots at −20 C.
Buffer: 50 mM HEPES, pH 7.8; 20% glycerol; 100 mM NaCl
Total assay volume was 100 μL
The buffer, KK4A, DTT, and tNS3 were combined; distributed 78 μL each into wells of 96 well plate. This was incubated at 30 C for ˜5-10 min.
2.5 μL of appropriate concentration of test compound was dissolved in DMSO (DMSO only for control) and added to each well. This was incubated at room temperature for 15 min.
Initiated reaction by addition of 20 μL of 250 μM 5AB substrate (25 μM concentration is equivalent or slightly lower than the Km for 5AB).
Incubated for 20 min at 30 C.
Terminated reaction by addition of 25 μL of 10% TFA
Transferred 120 μL aliquots to HPLC vials
Separated SMSY product from substrate and KK4A by the following method:
Microbore Separation Method:
Stop time: 17 min Post-run time: 10 min.

HCV NS3-NS4A protease (tNS3 with KK4A), sequence (P27958 1027-1208): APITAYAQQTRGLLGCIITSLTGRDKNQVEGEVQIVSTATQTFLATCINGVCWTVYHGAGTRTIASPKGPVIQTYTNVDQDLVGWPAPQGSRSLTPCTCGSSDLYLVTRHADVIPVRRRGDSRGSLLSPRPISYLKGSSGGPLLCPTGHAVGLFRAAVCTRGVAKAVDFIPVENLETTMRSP
HCV NS3-NS4A protease (tNS3 with KK4A), sequence (P27958 1658-1711): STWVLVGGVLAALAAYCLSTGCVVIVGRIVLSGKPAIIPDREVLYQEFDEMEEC

| Structure (SMILES) | Ki [nM] |
| --- | --- |
| CCC[C@H](NC(=O)[C@@H]1C[C@@H]2CCCC[C@@H]2N1C(=O)[C@@H](NC(=O)[C@@H](NC(=O)c1cnccn1)C1CCCCC1)C(C)(C)C)C(=O)C(=O)NOC(C)(C)C [Compound 2, 1-(2-{2-Cyclohexyl-2-[(pyrazine-2-carbonyl)-amino]-acetylamino}-3,3-dimethyl-butyryl)-octahydro-indole-2-carboxylic acid (1-tert-butoxyaminooxalyl-butyl)-amide] | < 1500 |
| CCC[C@H](NC(=O)[C@@H]1C[C@@H]2CCCC[C@@H]2N1C(=O)[C@@H](NC(=O)[C@@H](NC(=O)c1cnccn1)C1CCCCC1)C(C)(C)C)C(=O)C(=O)NN1CCOCC1 [Compound 7] | > 3000 |
| CCC[C@H](NC(=O)[C@@H]1C[C@@H]2CCCC[C@@H]2N1C(=O)[C@@H](NC(=O)[C@@H](NC(=O)c1cnccn1)C1CCCCC1)C(C)(C)C)C(=O)C(=O)NN(Cc1ccccc1)Cc1ccccc1 [Compound 8] | > 3000 |
| C=CCONC(=O)C(=O)[C@H](CCC)NC(=O)[C@@H]1C[C@@H]2CCCC[C@@H]2N1C(=O)[C@@H](NC(=O)[C@@H](NC(=O)c1cnccn1)C1CCCCC1)C(C)(C)C [Compound 4, 1-(2-{2-Cyclohexyl-2-[(pyrazine-2-carbonyl)-amino]-acetylamino}-3,3-dimethyl-butyryl)-octahydro-indole-2-carboxylic acid (1-allyloxyaminooxalyl-butyl)-amide] | > 3000 |
| CCC[C@H](NC(=O)[C@@H]1C[C@@H]2CCCC[C@@H]2N1C(=O)[C@@H](NC(=O)[C@@H](NC(=O)c1cnccn1)C1CCCCC1)C(C)(C)C)C(=O)C(=O)NOc1ccccc1 [Compound 5, 1-(2-{2-Cyclohexyl-2-[(pyrazine-2-carbonyl)-amino]-acetylamino}-3,3-dimethyl-butyryl)-octahydro-indole-2-carboxylic acid (1-phenoxyaminooxalyl-butyl)-amide] | 1500 to 3000 |
| CCC[C@H](NC(=O)[C@@H]1C[C@@H]2CCCC[C@@H]2N1C(=O)[C@@H](NC(=O)[C@@H](NC(=O)c1cnccn1)C1CCCCC1)C(C)(C)C)C(=O)C(=O)NOCC(C)C [Compound 1, 1-(2-{2-Cyclohexyl-2-[(pyrazine-2-carbonyl)-amino]-acetylamino}-3,3-dimethyl-butyryl)-octahydro-indole-2-carboxylic acid (1-isobutoxyaminooxalyl-butyl)-amide] | < 1500 |
| CCC[C@H](NC(=O)[C@@H]1C[C@@H]2CCCC[C@@H]2N1C(=O)[C@@H](NC(=O)[C@@H](NC(=O)c1cnccn1)C1CCCCC1)C(C)(C)C)C(=O)C(=O)NN(C)c1ccccc1 [Compound 6, 1-(2-{2-Cyclohexyl-2-[(pyrazine-2-carbonyl)-amino]-acetylamino}-3,3-dimethyl-butyryl)-octahydro-indole-2-carboxylic acid [1-(N′-methyl-N′-phenyl-hydrazinooxalyl)-butyl]-amide] | < 1500 |
| CCC[C@H](NC(=O)[C@@H]1C[C@@H]2CCCC[C@@H]2N1C(=O)[C@@H](NC(=O)[C@@H](NC(=O)c1cnccn1)C1CCCCC1)C(C)(C)C)C(=O)C(=O)NOCc1ccccc1 [Compound 3, 1-(2-{2-Cyclohexyl-2-[(pyrazine-2-carbonyl)-amino]-acetylamino}-3,3-dimethyl-butyryl)-octahydro-indole-2-carboxylic acid (1-benzyloxyaminooxalyl-butyl)-amide] | 1500 to 3000 |

Reference: patent publication US8536136B2, “Inhibitors of serine proteases, particularly HCV NS3-NS4A protease” (Vertex Pharmaceuticals Incorporated, priority 2004, dated 2013)
